Results from patent publication US10532984B2, “Pyridonecarboxylic acid derivative or salt thereof” (priority 2016, dated 2020).
Values after ≈ are worked out from the molar mass of the structure shown.

Assays:
P. aeruginosa PA01 = assay: Combined antibacterial effect with drug efflux pump inhibitor PAβN, broth microdilution MIC; assay type: cell-based; conditions: for MIC value P. aeruginosa PA01 PAβN +: P. aeruginosa PA01, with PAβN 50 μg/mL; for MIC value P. aeruginosa PA01 PAβN −: P. aeruginosa PA01, without PAβN
Description: (§1) The method used was a broth microdilution method according to the standard method of the Japanese Society of Chemotherapy (Chemotherapy, 38 (1), 102, 1990). In the condition which added H-Phe-Arg-βNA, 2HCl (PAβN) (50 μg/mL) as drug efflux pump inhibitor, the minimum inhibitory concentrations (MIC: μg/mL) was measured. The minimum inhibitory concentrations (MIC: μg/mL) of the conventional antimicrobial agents levofloxacin and cefepime as a positive control compound and a negative control compound for the evaluation were also measured similarly. P. aeruginosa is a clinical isolate given by […] Medical Center.

P. aeruginosa 2014-17 = assay: as above; assay type: cell-based; conditions: for MIC value P. aeruginosa 2014-17 PAβN +: P. aeruginosa 2014-17, with PAβN 50 μg/mL; for MIC value P. aeruginosa 2014-17 PAβN −: P. aeruginosa 2014-17, without PAβN
Description: as §1

P. aeruginosa 08-05 = assay: as above; assay type: cell-based; conditions: for P. aeruginosa 08-05 MIC ratio: P. aeruginosa 08-05, PAβN(−) MIC/PAβN(+) MIC; for MIC value P. aeruginosa 08-05 PAβN +: P. aeruginosa 08-05, with PAβN 50 μg/mL; for MIC value P. aeruginosa 08-05 PAβN −: P. aeruginosa 08-05, without PAβN
Description: as §1

MRSA9522 = assay: Antibacterial effect, MIC by standard method of Japanese Society of Chemotherapy; assay type: cell-based, methicillin-resistant Staphylococcus aureus; conditions: Staphylococcus aureus
Description: (§2) The minimum inhibitory concentrations (MIC: μg/mL) of the compounds set forth in Table 1 were measured according to the standard method of Japanese Society of Chemotherapy (Japanese Journal of Chemotherapy, 56 (1), 49, 2008). […] P. aeruginosa is a clinical isolate given by Kameda Medical Center. C. difficile is a clinical isolate purchased from International Health Management Associates, Inc. (IHMA).

MRSA9532 = assay: as above; assay type: cell-based, methicillin-resistant Staphylococcus aureus; conditions: Staphylococcus aureus
Description: as §2

P. aeruginosa 2014-16 = assay: as above; assay type: cell-based; conditions: Pseudomonas aeruginosa, 201416; P. aeruginosa 2014-16, clinical isolate
Description: as §2

C. difficile 2015-12 = assay: as above; assay type: cell-based; conditions: Clostridioides difficile, 201512; C. difficile 2015-12, clinical isolate
Description: as §2

C. difficile 2015-13 = assay: as above; assay type: cell-based; conditions: Clostridioides difficile, 201513; C. difficile 2015-13, clinical isolate
Description: as §2

Row | SMILES | MIC value P. aeruginosa PA01 PAβN + (P. aeruginosa PA01) [µg/mL] | MIC value P. aeruginosa PA01 PAβN − (P. aeruginosa PA01) [µg/mL] | MIC value P. aeruginosa 2014-17 PAβN + (P. aeruginosa 2014-17) [µg/mL] | MIC value P. aeruginosa 2014-17 PAβN − (P. aeruginosa 2014-17) [µg/mL] | P. aeruginosa 08-05 MIC ratio (P. aeruginosa 08-05) | MIC value P. aeruginosa 08-05 PAβN + (P. aeruginosa 08-05) [µg/mL] | MIC value P. aeruginosa 08-05 PAβN − (P. aeruginosa 08-05) [µg/mL] | MIC (MRSA9522) [µg/mL] | MIC (MRSA9532) [µg/mL] | MIC (P. aeruginosa 2014-16) [µg/mL] | MIC (C. difficile 2015-12) [µg/mL] | MIC (C. difficile 2015-13) [µg/mL]
1 | CO/N=C(\C(=O)N[C@@H]1C(=O)N2C(C(=O)[O-])=C(C[N+]3(C)CCCC3)CS[C@H]12)c1csc(N)n1 [Cefepime, cefepime, reference compound] | 0.5 | 1 | 16 | 64 | 4 | 2 | 8 | – | – | – | – | –
2 | O=C(O)c1cn(C2CC2)c2cc(N3CCNCC3)c(F)cc2c1=O [Ciprofloxacin, ciprofloxacin] | – | – | – | – | – | – | – | 128 (≈ 386 µM) | > 128 | – | – | –
3 | Nc1cc(-n2cc(C(=O)O)c(=O)c3cc(F)c(N4CC(N)C4)c(Cl)c32)c(F)cc1F [Comparative Compound 1, 7-(3-Aminoazetidin-1-yl)-1-(5-amino-2,4-difluorophenyl)-8-chloro-6-fluoro-4-oxo-1,4-dihydroquinoline-3-carboxylic acid] | – | – | – | – | – | – | – | 4 (≈ 9.12 µM) | 4 (≈ 9.12 µM) | 8 (≈ 18.2 µM) | 16 (≈ 36.5 µM) | 8 (≈ 18.2 µM)
4 | CNC1CN(c2c(F)cc3c(=O)c(C(=O)O)cn(-c4cc(N)c(F)cc4F)c3c2Cl)C1 [Comparative Compound 2, 1-(5-amino-2,4-difluorophenyl)-8-chloro-6-fluoro-7-(3-methylaminoazetidin-1-yl)-4-oxo-1,4-dihydroquinoline-3-carboxylic acid] | – | – | – | – | – | – | – | 1 (≈ 2.21 µM) | 2 (≈ 4.42 µM) | 16 (≈ 35.3 µM) | 8 (≈ 17.7 µM) | 4 (≈ 8.83 µM)
5 | CNC1CN(c2c(F)cc3c(=O)c(C(=O)O)cn(-c4cc(N)c(F)cc4CO)c3c2C)C1 [Example 70] | 0.25 | 0.25 | 4 | 16 | 4 | 0.25 | 1 | – | – | – | – | –
6 | Cc1c(F)c(N2CC(N)C2)c(C)c2c1c(=O)c(C(=O)O)cn2-c1cc(N)c(F)cc1CO [Example 100, 7-(3-Aminoazetidin-1-yl)-1-[5-amino-4-fluoro-2-(hydroxymethyl)phenyl]-5,8-dimethyl-6-fluoro-4-oxo-1,4-dihydroquinoline-3-carboxylic acid] | 0.016 | 0.12 | 0.25 | 2 | 8 | 0.06 | 0.5 | – | – | – | – | –
7 | CNC1CN(c2c(F)c(C)c3c(=O)c(C(=O)O)cn(-c4cc(N)c(F)cc4CO)c3c2Cl)C1 [Example 104, 1-[5-Amino-4-fluoro-2-(hydroxymethyl)phenyl]-8-chloro-6-fluoro-5-methyl-7-(3-methylaminoazetidin-1-yl)-4-oxo-1,4-dihydroquinoline-3-carboxylic acid] | 0.016 | 0.12 | 0.25 | 4 | 8 | 0.06 | 0.5 | 1 (≈ 2.09 µM) | 1 (≈ 2.09 µM) | 2 (≈ 4.18 µM) | 1 (≈ 2.09 µM) | 0.5 (≈ 1.04 µM)
8 | Cc1c(F)c(N2CC(O)C2)c(Cl)c2c1c(=O)c(C(=O)O)cn2-c1cc(N)c(F)cc1CO [Example 113, 1-[5-Amino-4-fluoro-2-(hydroxymethyl)phenyl]-8-chloro-6-fluoro-7-(3-hydroxyazetidin-1-yl)-5-methyl-4-oxo-1,4-dihydroquinoline-3-carboxylic acid] | – | – | – | – | – | – | – | 1 (≈ 2.15 µM) | 1 (≈ 2.15 µM) | 4 (≈ 8.59 µM) | 0.12 (≈ 0.258 µM) | 0.06 (≈ 0.129 µM)
9 | C[C@H]1COc2c(N3CCN(C)CC3)c(F)cc3c(=O)c(C(=O)O)cn1c23 [Levofloxacin, levofloxacin, reference compound] | 0.06 | 0.5 | 1 | 32 | 32 | 0.12 | 4 | > 128 | > 128 | > 128 | > 128 | > 128
